From PubChem BioAssay (NCI) come the findings set out here.

Each structure is given as a SMILES string.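 In this assay, cells in 96-well plates receive the compound at five concentrations for 48 hours. Endpoints are linearly interpolated between the surrounding concentrations. The concentration for full growth arrest is given as TGI.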 Some results are limits rather than exact numbers.

Some test systems named below: A549 NSCLC; ACHN renal; EKVX NSCLC; HT29 colon; M14 melanoma; MOLT-4 leukemia; NCI-H522 lung; SF-539 CNS; SK-MEL-5 melanoma; TK-10 renal; BT-549 breast; MCF7 breast; MDA-MB-231 breast; HS 578T breast.
Assay in all cases: NCI tumour cell line growth inhibition, 48 h

As for `CC(C)C(Sc1nc(-c2ccccc2)c(-c2ccccc2)[nH]1)C(=O)N/N=C/c1ccc([N+](=O)[O-])cc1` (configuration not stated), the TGI was 66.3 µM in the experiment on A549 NSCLC; > 100 µM with ACHN renal; 65.6 µM with EKVX NSCLC; 23.2 µM with HT29 colon; 21.6 µM with M14 melanoma; 10.3 µM in the experiment with MOLT-4 leukemia. The TGI in the experiment on NCI-H522 lung was 32.4 µM; in the experiment with SF-539 CNS, 36.5 µM; in the experiment with SK-MEL-5 melanoma, 21.3 µM; in the experiment with TK-10 renal, > 100 µM.

Regarding `O=c1oc2cc(O)ccc2cc1-c1nc2ccccc2s1`, the TGI in the experiment with A549 NSCLC stood at 55.1 µM; in the experiment with ACHN renal it was 52.4 µM; in the experiment with BT-549 breast, 51 µM; in the experiment with EKVX NSCLC, 85.9 µM; in the experiment with HT29 colon, 85.6 µM; in the experiment with M14 melanoma it was 82.9 µM. Also, the TGI in the experiment with MCF7 breast is 67 µM; in the experiment on MDA-MB-231 breast, 53.6 µM; with MOLT-4 leukemia it was 17.4 µM; in the experiment with SF-539 CNS, 46.6 µM; with SK-MEL-5 melanoma, 28.5 µM; in the experiment with TK-10 renal, > 100 µM.

With `CNC(=O)c1n[nH]n(Cc2ccccc2)c1=S`, the TGI with A549 NSCLC, in the experiment with ACHN renal, in the experiment with BT-549 breast, with EKVX NSCLC, in the experiment on HT29 colon and in the experiment with M14 melanoma was > 100 µM each time. Further, the TGI in the experiment on MCF7 breast, with MDA-MB-231 breast, with MOLT-4 leukemia, in the experiment on SK-MEL-5 melanoma and in the experiment with TK-10 renal was > 100 µM in each case.

Consider `NC(CCCCN=Cc1nc(-c2ccccc2)oc1O)C(=O)O` (configuration not stated), for which the TGI in the experiment on A549 NSCLC, with ACHN renal, with EKVX NSCLC, in the experiment with HT29 colon, with M14 melanoma and in the experiment on MOLT-4 leukemia was > 100 µM throughout. Further, the TGI in the experiment on NCI-H522 lung, in the experiment on SF-539 CNS, with SK-MEL-5 melanoma and with TK-10 renal was > 100 µM throughout.

Regarding `COc1cc2c(oc(=O)c3cc4ccoc4c(OC)c32)c2cccc(O)c12`, the TGI with A549 NSCLC, with ACHN renal, in the experiment with EKVX NSCLC, in the experiment on HT29 colon, in the experiment with M14 melanoma and in the experiment on MOLT-4 leukemia was > 100 µM throughout. For the same molecule, the TGI with NCI-H522 lung, with SF-539 CNS, in the experiment with SK-MEL-5 melanoma and in the experiment on TK-10 renal was > 100 µM in each case.

For the molecule `O=C(Nc1ccccc1)Nn1c(-c2cccs2)nc2ccc(I)cc2c1=O`, the TGI in the experiment on A549 NSCLC is 49.4 µM; in the experiment on ACHN renal, > 100 µM; in the experiment with BT-549 breast it was 39 µM; in the experiment on EKVX NSCLC, 58.6 µM; in the experiment on HT29 colon it was 84.7 µM; in the experiment on M14 melanoma, > 100 µM. The TGI in the experiment on MCF7 breast was 87.7 µM; with NCI-H522 lung, 44.7 µM; in the experiment with SF-539 CNS, > 100 µM; in the experiment with SK-MEL-5 melanoma it was 40.7 µM; with TK-10 renal, 60.6 µM.

On to `CCN(CC)CCNc1ccc2ncn3c4c(OC)cccc4c(=O)c1c23`, for which the TGI in the experiment with A549 NSCLC was 27.6 µM; in the experiment on ACHN renal it was 25.2 µM; in the experiment on EKVX NSCLC it was 17.7 µM; with HS 578T breast, 30.5 µM; in the experiment with HT29 colon, 36.1 µM; in the experiment with M14 melanoma it was 20.9 µM. For the same molecule, the TGI with MDA-MB-231 breast came out at 25.6 µM; in the experiment on NCI-H522 lung, 20.7 µM; in the experiment on SF-539 CNS, 22.8 µM; in the experiment on SK-MEL-5 melanoma, 13.3 µM; in the experiment with TK-10 renal, 77.7 µM.

In the case of `C[N+](C)(C)C1(C(=O)[O-])CC1`, the TGI with A549 NSCLC, in the experiment on ACHN renal, in the experiment with EKVX NSCLC, with HS 578T breast, in the experiment with HT29 colon and in the experiment on M14 melanoma was > 100 µM in each case. Moreover, the TGI in the experiment with MCF7 breast, in the experiment with MOLT-4 leukemia, in the experiment on NCI-H522 lung, with SF-539 CNS, with SK-MEL-5 melanoma and with TK-10 renal was > 100 µM throughout.

Turning to `O=c1[nH]c(=O)n(C2OC(CO)C(O)C2O)cc1OCCc1ccccc1` (configuration not stated), the TGI with A549 NSCLC, in the experiment on ACHN renal, with EKVX NSCLC, in the experiment on HS 578T breast, in the experiment on HT29 colon and in the experiment with M14 melanoma was > 100 µM throughout. Moreover, the TGI in the experiment with MCF7 breast, with MDA-MB-231 breast, in the experiment with MOLT-4 leukemia, with NCI-H522 lung, in the experiment with SF-539 CNS and with SK-MEL-5 melanoma was > 100 µM throughout. The TGI with TK-10 renal was > 100 µM.

With `C[C@@H]1OC(=O)C[C@H]2CC(=O)N(CCC3CN(S(=O)(=O)C(F)(F)F)c4ccc(Cc5ccc6c(c5)C(CCN5C[C@H]7[C@@H](CC(=O)O[C@H]7C)CC5=O)CN6S(=O)(=O)C(F)(F)F)cc43)C[C@@H]21` (some centres not stated), the TGI in the experiment with A549 NSCLC, in the experiment with ACHN renal, in the experiment on BT-549 breast, in the experiment with EKVX NSCLC, in the experiment on M14 melanoma and with MCF7 breast was > 100 µM each time. The TGI with MDA-MB-231 breast is > 100 µM; in the experiment on MOLT-4 leukemia, > 100 µM; in the experiment on SF-539 CNS it was 1.84 µM; in the experiment on SK-MEL-5 melanoma it was > 100 µM; in the experiment with TK-10 renal, > 100 µM.

As for `NC(CCCNc1cccc(O)c1)C(=O)O` (configuration not stated), the TGI in the experiment on A549 NSCLC, in the experiment with ACHN renal, with EKVX NSCLC, with HT29 colon, in the experiment on M14 melanoma and in the experiment with MOLT-4 leukemia was > 100 µM throughout. Further, the TGI in the experiment with NCI-H522 lung, in the experiment with SK-MEL-5 melanoma and with TK-10 renal was > 100 µM throughout.

As for `CCCC(=O)/C=C/S/C=C/C(=O)CCC`, the TGI with A549 NSCLC is > 100 µM; in the experiment on ACHN renal, 6.92 µM; with EKVX NSCLC, 10.6 µM; in the experiment on HS 578T breast, 36.3 µM; with HT29 colon it was > 100 µM; in the experiment on M14 melanoma, 9 µM. Moreover, the TGI is > 100 µM in the experiment on MCF7 breast; 23.8 µM in the experiment with MDA-MB-231 breast; 4.2 µM with NCI-H522 lung; 27 µM in the experiment on SF-539 CNS; 16.1 µM with SK-MEL-5 melanoma; 14.5 µM in the experiment with TK-10 renal.
